Measurements taken from patent publication US11154476B2, “Synergistic effects of alkanolamine alkylamides and other moisturizing agents” (Akzo Nobel Chemicals International, B.V., priority 2016, dated 2021).

What was measured:
[1] = Dynamic Vapor Sorption (DVS) analysis, equilibrium water absorption; type: physicochemical; conditions: DVS at 50% humidity, 25° C., single moisturizing agents / Ex. 1 and 2 products
Protocol: Dynamic Vapor Sorption (DVS) technique was used to measure the moisture intake of a specific compound at certain humidity level. DVS Intrinsic instrument manufactured by Surface Measurement Systems UK Ltd. (London, United Kingdom) was used to measure DVS. The following measurement procedure was used to determine the water vapor absorption of a specific composition.
A uniform aqueous solution of a target composition was made at 50% concentration. About 1.2 to 1.6 mg of the prepared aqueous solution was added to DVS instrument at zero tare balance. The temperature was then set at 25° C. A measurement was performed at 90% humidity to ensure that the sample absorbs the highest level of water in order to minimize the mass transfer barrier during the evaporation process. The dynamics of water absorption was determined by the weight change per minute; with water absorption equilibrium defined as the time at which the weight change per minute was less than 0.005% of the sample weight. The equilibrium weight at 0% humidity is the sample weight by itself. Thus, the percentage of equilibrium water absorption at various humidity levels was calculated.
Using the above procedure, DVS was used to evaluate water absorption for compositions comprising DGA Acetamide, other moisturizing agents, and combinations of DGA Acetamide and various additional moisturizing agents. First, DVS values were obtained at 50% humidity for the DGA acetamide products of Examples 1 and 2 above and other selected moisturizing agents.
Then, 1:1 mixtures based on weight were made of each of the DGA Acetamide products of Examples 1 and 2 above with each of the other four moisturizing agents, where the DGA acetamide product of Example 1 is DGA Acetamide:glycerol (83 wt %:17 wt %) and the DGA acetamide product of Example 2 is substantially 100% DGA acetamide. DVS measurements were taken at 50% humidity, using the same amount of total moisturizing agent. It was expected that the DVS values of the mixtures with the other four moisturizing agents would have been the average of the DVS values of each of the moisturizing agents individually, based on the weight percent of each in the mixture.

[2] = test system: inner forearm of each panelist; assay: Corneometer analysis of test gel formulations, scaled moisturization performance (SMP); type: in vivo; conditions: average of 8 panelists, water = 0, glycerol = 1, 22° C., 50% RH; for Corneometer SMP results, 6 hours: 6 hours after single application of gel with 5 wt % active; for Corneometer SMP results, 30 hours: 30 hours after single application of gel with 5 wt % active
Protocol: To prepare a gel formulation, deionized water was added to a 4 oz. tall jar that was set up for mixing using an overhead mixer and a jiffy blade. The water was then mixed at a speed that created a good vortex that nearly reached the bottom of the jar (e.g., about 700 rpm). To this, Carbopol® 940 (cross-linked polyacrylate polymer available from Lubrizol, Wickliffe, Ohio) was slowly added and mixed for at least 15 minutes until homogeneous. Triethanolamine (TEA) was then added and the mixing speed was adjusted overhead to about 200 rpm and continued mixing for about 10 minutes (e.g., product viscosity increased). To this mixture was added 5 wt % of the moisturizing agent, as either a single agent or a combination of agents, followed by 0.5 wt % Glydant™ Plus™ (a preservative available from Lonza, Basel, Switzerland) and the remaining, balance water. Mixing was continued at 200 rpm for about 15-20 minutes. The mixture was then removed from the mixer and the final pH was measured. Prior to analysis, samples were centrifuged at 2000 rpm for 15 minutes to remove suspended air pockets from the gel formulation.
About 30 μl of each test gel formulation was applied once (e.g., in a single application with no additional re-applications) in a circle with diameter of about 3 cm on the inner forearm of each panelist. Moisture levels were measured using a Corneometer® CM 825 (available from CK Industries) prior to application of the test gel formulations, and at 6 hour and 30 hour intervals after application, at a temperature of 22° C. and relative humidity of 50%.
To facilitate more meaningful comparisons of the corneometer data for the different test formulations, the following adjustment were made to minimize the variations in the response of humectant treatment: the moisturization performance for glycerol was defined to be 1, and that for water to be zero, then the scaled moisturization performance (SMP) for a specific moisturizing active was defined as: […]
RActive, Rwater, and Rglycerol were the actual corneometer readings of the test gel formulations comprising the active moisturizing agent(s), water, and glycerol, respectively, for an individual panelist at a specific time after the initial treatment. The overall SMP of each tested activewas then the average of SMP over 8 panelists. […] The SMP values illustrated in FIG. 4 provide narrower standard deviations over 8 panelists when compared to actual corneometer readings in FIG. 3.
Using this procedure, corneometer measurements were taken at 6 hours and 30 hours for hydroxyethyl urea, glycerol, the DGA acetamide:glycerol (83:17 wt %) of Example 1, the DGA Acetamide of Example 2, a 1:1 mixture of the DGA Acetamide of Example 2 with hydroxyethyl urea, and a 1:1 mixture of the DGA Acetmaide of Example 2 with glycerol. Measurements were taken at six hours and 30 hours on eight subjects, and calculated as scaled moisturization performance values.

Row | % water absorbed (based on weight of moisturizing agent) [1] [%] | Compound | Corneometer SMP results, 6 hours [2] | Corneometer SMP results, 30 hours [2]
1 | 19.7 | NC(=O)NCCO [A, Hydroxyethyl urea] | 0.91 | 1.03
2 | 26.9 | CC(=O)NCCOCCO [C, N-acetyl diglycolamine] | 0.80 | 0.92
3 | 27.7 | OCC(O)CO [D, Glycerol] | 1.0 | 1.0

Row | Compound | % water absorbed (based on weight of moisturizing agent) [1] [%] | Corneometer SMP results, 6 hours [2] | Corneometer SMP results, 30 hours [2]
4 | O=C1CCC(C(=O)[O-])N1.[Na+] (centres unmarked) [E, sodium pyrrolidone carboxylate] | 28.7 | – | –
5 | CC(O)C(=O)[O-].[Na+] (centres unmarked) [F, Sodium lactate] | 35.1 | – | –
